From patent US9403776B2, “Aryl- and heteroaryl-substituted tetrahydrobenzazepines and use thereof to block reuptake of norepinephrine, dopamine, and serotonin” (Albany Molecular Research, Inc., priority 2005, dated 2016) come the findings set out here.

Where a name gives a salt, the structure may show the parent alone.

Broadly, the melting point is the temperature, or range, at which the solid turns liquid. `Cc1ccc(-c2ccc3c(c2)CN(C)CCC3c2ccc(C#N)c(F)c2)nn1` (single isomer, unassigned; (-)) (as salt: tartrate) [Example 92 (−), (−)-2-fluoro-4-(2-methyl-8-(6-methylpyridazin-3-yl)-2,3,4,5-tetrahydro-1H-benzo[c]azepin-5-yl)benzonitrile] had a melting point of 122 to 127 °C.

On to `Cc1noc(C)c1-c1ccc2c(c1)CN(C)CCC2c1ccc(Cl)cc1` (single isomer, unassigned; (-)) (as salt: maleate) [Example 42, (−)-5-(4-chlorophenyl)-8-(3,5-dimethylisoxazol-4-yl)-2-methyl-2,3,4,5-tetrahydro-1H-benzo[c]azepine], for which the melting point lay within 66 to 68 °C.

As to `COc1ccc2c(c1)CNCCC2c1ccccc1` (racemic) (as salt: maleate) [Example 53, (+/−)-8-methoxy-5-phenyl-2,3,4,5-tetrahydro-1H-benzo[c]azepine], the melting point fell in the range of 154 to 156 °C. Regarding `Cc1ccc(-c2ccc3c(c2)CN(C)CCC3c2cccc(F)c2)nn1` (single isomer, unassigned; (-)) (as salt: citrate) [Example 84 (−), (−)-5-(3-fluorophenyl)-2-methyl-8-(6-methylpyridazin-3-yl)-2,3,4,5-tetrahydro-1H-benzo[c]azepine], the melting point was 107 to 110 °C. In the case of `COc1ccc(C2CCN(C)Cc3cc(OC)ccc32)cc1` (racemic) (as salt: hydrochloride) [Example 5, (+/−)-5-(4-methoxyphenyl)-8-methoxy-2-methyl-2,3,4,5-tetrahydro-1H-benzo[c]azepine] it was 165 to 166 °C; in that of `CN1CCC(c2ccccc2)c2ccc(-c3ncccn3)cc2C1` (single isomer, unassigned; (+)) (as salt: maleate) [Example 27, (+)-2-methyl-5-phenyl-8-(pyrimidin-2-yl)-2,3,4,5-tetrahydro-1H-benzo[c]azepine], 76 to 78 °C; in that of `COc1ccc2c(c1)CN(C(C)C)CCC2c1ccccc1` (racemic) (as salt: maleate) [Example 55, (+/−)-2-isopropyl-8-methoxy-5-phenyl-2,3,4,5-tetrahydro-1H-benzo[c]azepine], 172 to 175 °C. `Cc1ccc(-c2ccc3c(c2)CN(C)CCC3c2ccc(Cl)cc2)nn1` (single isomer, unassigned; (+)) (as salt: hydrochloride) [Example 39, (+)-5-(4-chlorophenyl)-2-methyl-8-(6-methyl-pyridazin-3-yl)-2,3,4,5-tetrahydro-1H-benzo[c]azepine]: the melting point is 179 to 181 °C (dec.). In the case of `CN1CCC(c2ccccc2)c2ccc(F)cc2C1.O=C(O)/C=C\C(=O)O` (stereo not shown) it was 153 to 155 °C; in that of `COc1ccc2c(c1)CN(C)CCC2c1ccc(F)cc1` (racemic) (as salt: hydrochloride) [Example 3, (+/−)-5-(4-fluorophenyl)-8-methoxy-2-methyl-2,3,4,5-tetrahydro-1H-benzo[c]azepine], 149 to 150 °C; in that of `COc1cccc2c1C(c1ccccc1)CCN(C)C2` (racemic) (as salt: fumarate) [Example 2, (+/−)-6-methoxy-2-methyl-5-phenyl-2,3,4,5-tetrahydro-1H-benzo[c]azepine], 154 to 156 °C.

On to `CCN1CCC(c2ccccc2)c2ccc(N3CCOCC3)cc2C1` (single isomer, unassigned; (+)) (as salt: maleate) [Example 57 (+), (+)-4-(2-ethyl-5-phenyl-2,3,4,5-tetrahydro-1H-benzo[c]azepin-8-yl)morpholine], for which the melting point was 64 to 66 °C. Consider `Cc1ccc(-c2ccc3c(c2)CN(C)CCC3c2ccc(F)cc2)nn1` (single isomer, unassigned; (+)) (as salt: maleate) [Example 89, (+)-5-(4-fluorophenyl)-2-methyl-8-(6-methylpyridazin-3-yl)-2,3,4,5-tetrahydro-1H-benzo[c]azepine], for which the melting point was 173 to 176 °C.
